The values that follow come from patent US20250179047A1, “5-[7-(3,4-DIHYDRO-1H-ISOQUINOLINE-2-CARBONYL)-1,2,3,4 TETRAHYDROISOQUINOLIN-6-YL]-1H-PYRROLE-3-CARBOXAMIDE DERIVATIVES, PHARMACEUTICAL COMPOSITIONS CONTAINING THEM AND THEIR USES AS PRO-APOPTOTIC AGENTS” (LES LABORATOIRES SERVIER, priority 2022, published 2025).

In series [1] the target is BCL2 F104I (Homo sapiens, UniProt P10415, F104I). The series is described as follows: TR-FRET competitive binding assay, BCL2 F104I. To be noted: Ki determined from IC50, read-out: TR_FRET EKI_Bcl2 F104I. The method, boiled down:
(§1)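 Ki derived from IC50 (11-point dilution, 520/495 nm emission ratio) for displacing a fluorescein-labelled PUMA peptide (2 or 20 nM). Target was 0.5 nM E. coli-expressed Halo-tagged BCL2 (1-207) or BCLXL (2-196), terbium-labelled on Halo. Incubation 2 h at 23°C in pH 7.5 Hepes with 150 mM NaCl and 5% DMSO.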

The test system of series [2] is platelets. The series is described as follows: Platelet depletion in SCID mice. It counts as in vivo. Particulars: 25 mg/kg IV bolus, vs control group; for Platelet loss (%) 6 h: 6 h after dosing; for Platelet loss (%) 24 h: 24 h after dosing. The method, then:
(§2) Pharmacokinetic (PK) and platelet toxicity were investigated in SCID mice. Compounds were administered at 25 mg/kg by IV bolus, and formulated in PEG/Ethanol/NaCl 0.9% (40/10/50 v/v/v).
(§3) Blood samples (3 animals/time point and 3 time points/animal) were collected over 24 h after dosing: 0.05 h, 0.5 h, 1 h, 3 h, 6 h and 24 h for PK and 6 h and 24 h for platelets.
(§4) PK samples were analyzed by liquid chromatography using tandem mass spectrometry detection (LC-MS/MS) and platelet count (109/L) was measured using an hematology analyzer. Percentage of platelet loss was calculated at both time points (T+6 h and 24 h) as compared to a control group of 6 animals. PK parameters (Cinf and AUC24, which correspond to the concentration at the end of bolus administration and the area under curve over 24 h, respectively) were also determined using a non-compartmental analysis.

Series [3] in a line: Pharmacokinetics in SCID mice. The format is in vivo. To be noted: 25 mg/kg IV bolus; for PK parameters Cinf: concentration at the end of bolus administration; for AUC: mouse, blood, area under curve over 24 h, read-out: PK parameters AUC24. The method, then:
as §2, §3, §4

Series [4] concerns the target BCLXL WT (Homo sapiens (Human), UniProt Q07817). Nature of the series: TR-FRET competitive binding assay, BCLXL WT. To be noted: for Ki: BCLXL WT, Ki determined from IC50, read-out: TR_FRET EKI BclxL; for TR_FRET EKI BCLxL/WT selectivty ratio: ratio Ki BCLxL / Ki BCL2 WT. The method, boiled down: as §1
In general terms: In TR-FRET formats the signal depends on donor and acceptor labels being close together.

Series [5] has as its target BCL2 D103Y (Homo sapiens, UniProt P10415, D103Y). The series is described as follows: TR-FRET competitive binding assay, BCL2 D103Y. To be noted: Ki determined from IC50, read-out: TR_FRET EKI_Bcl2 D103Y. The procedure, abridged: as §1
Series [6] has as its system KMS-12-PE Bcl-2 G101V. Nature of the series: In vitro cytotoxicity CellTiter-Glo 48 h, KMS-12-PE Bcl-2 G101V. It counts as cell-based. Particulars: for Ratio (G101V/WT): C50 KMS-12-PE Bcl-2 G101V over C50 KMS-12-PE Bcl-2 WT; for IC50: Homo sapiens, KMS-12-PE, 48 h, CellTiter-Glo, C50 = concentration needed to reach 50% of the cellular viability. The method, boiled down: (§5)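 Potency is expressed as C50, the compound concentration at which viability of engineered KMS-12-PE cells (Bcl-2 wild type or G101V) falls to 50%, determined from CellTiter-Glo luminescence after 48 h of treatment over 11 concentrations.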
For orientation: ATP-based viability assays read luminescence as a measure of living cells.

For series [7], the target named is BCL2 G101V (Homo sapiens, UniProt P10415, G101V). Nature of the series: TR-FRET competitive binding assay, BCL2 G101V. Particulars: BCL2 G101V; Ki determined from IC50; read-out: TR_FRET EKI_Bcl2 G101V. The procedure, abridged: as §1
In series [8] the test system is BCL2 G101V. The series is described as follows: TR-FRET competitive binding assay, BCL2 G101V. Further details: species or system human. Particulars: ratio Ki BCL2 G101V / Ki BCL2 WT. The method, boiled down:
as §1

Series [9] has as its system KMS-12-PE Bcl-2 WT. The series is described as follows: In vitro cytotoxicity CellTiter-Glo 48 h, KMS-12-PE Bcl-2 WT. The format is cell-based. To be noted: Homo sapiens, KMS-12-PE, C50 = concentration needed to reach 50% of the cellular viability. The method, boiled down:
as §5

For series [10], the target named is BCL2 D111A (Homo sapiens, UniProt P10415, D111A). Nature of the series: TR-FRET competitive binding assay, BCL2 D111A. Particulars: Ki determined from IC50, read-out: TR_FRET EKI_Bcl2 D111A. The method, boiled down:
as §1

Series [11] deals with BCL2 WT (Homo sapiens (Human), UniProt P10415). The series is described as follows: TR-FRET competitive binding assay, BCL2 WT. Particulars: Ki determined from IC50, read-out: TR_FRET EKI_Bcl2 WT. The method, boiled down:
as §1

BCLXL WT, sequence (Q07817 other isoform, or with tags, fused parts or gaps): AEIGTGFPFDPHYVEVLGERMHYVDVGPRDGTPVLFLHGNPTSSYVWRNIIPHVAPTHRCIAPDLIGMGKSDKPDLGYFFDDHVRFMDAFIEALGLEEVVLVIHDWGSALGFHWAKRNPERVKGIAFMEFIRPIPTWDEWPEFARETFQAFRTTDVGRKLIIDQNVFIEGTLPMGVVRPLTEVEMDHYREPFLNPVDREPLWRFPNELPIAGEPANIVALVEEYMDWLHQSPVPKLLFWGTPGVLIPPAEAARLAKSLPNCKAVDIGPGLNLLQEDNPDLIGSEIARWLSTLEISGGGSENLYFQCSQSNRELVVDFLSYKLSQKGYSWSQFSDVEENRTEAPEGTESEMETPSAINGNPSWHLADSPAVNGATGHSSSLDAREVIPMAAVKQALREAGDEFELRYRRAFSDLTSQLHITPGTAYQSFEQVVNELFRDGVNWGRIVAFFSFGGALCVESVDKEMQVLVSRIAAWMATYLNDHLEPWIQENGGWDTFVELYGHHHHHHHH

One may read the IC50 as the concentration needed to halve the response being measured. As for `Cc1c(N(C(=O)c2cc(-c3cc4c(cc3C(=O)N3Cc5ccccc5C[C@H]3C)CN(C(=O)Cc3ccc(OCCN5CCO[C@H](C)C5)cc3)CC4)n(C)c2C)c2ccc(O)cc2)cc(C#N)n1C` [Example 56, N-(5-cyano-1,2-dimethyl-1H-pyrrol-3-yl)-N-(4-hydroxyphenyl)-1,2-dimethyl-5-{7-[(3R)-3-methyl-1,2,3,4-tetrahydroisoquinoline-2-carbonyl]-2-(2-{4-[2-((2R)-2-methylmorpholin-4-yl)ethoxy]phenyl}acetyl)-1,2,3,4-tetrahydroisoquinolin-6-yl}-1H-pyrrole-3-carboxamide], the Ki in [1] turned out to be 0.28 nM; in series [4], 1.6 nM; in series [5] it was 0.19 nM; in series [7] it was 0.2 nM; in series [10], 0.17 nM; in series [11], 0.06 nM. For the same molecule, the “Platelet loss (%) 6 h” value in [2] was 43.5%. The “Platelet loss (%) 24 h” value in [2] is on record as 26.9%. Further, in [3], the “PK parameters Cinf” value was 48.5 µM. Moreover, in series [3], the AUC is 30.5 µM·h. Moreover, the “TR_FRET EKI BCLxL/WT selectivty ratio” value in [4] was 26.7. Also, the “Ratio (G101V/WT)” value in series [6] was 4.21. Also, the IC50 in series [6] amounted to 0.0201 µM; in series [9] it was 0.0048 µM. Moreover, the “TR_FRET EKI G101V/WT selectivty ratio” value in series [8] was 2.8.

`Cc1c(N(C(=O)c2cc(-c3cc4c(cc3C(=O)N3Cc5ccccc5C[C@H]3C)CN(C(=O)Cc3ccc(N5CCN(CC(F)(F)F)CC5)cc3)CC4)n(C)c2C)c2ccc(O)cc2)cc(C#N)n1C` [Example 23, N-(5-cyano-1,2-dimethyl-1H-pyrrol-3-yl)-N-(4-hydroxyphenyl)-1,2-dimethyl-5-{7-[(3R)-3-methyl-1,2,3,4-tetrahydroisoquinoline-2-carbonyl]-2-(2-{4-[4-(2,2,2-trifluoroethyl)piperazin-1-yl]phenyl}acetyl)-1,2,3,4-tetrahydroisoquinolin-6-yl}-1H-pyrrole-3-carboxamide]: the Ki is 19.7 nM in series [1]; 48.5 nM in series [4]; 1.09 nM in [5]; 3.5 nM in series [7]; 1.54 nM in series [10]; 0.58 nM in series [11]. Moreover, the “Platelet loss (%) 6 h” value in [2] is recorded as 19.6%. In addition, the “Platelet loss (%) 24 h” value in series [2] came out at 12.8%. In addition, the “PK parameters Cinf” value in [3] worked out at 6.8 µM. Besides, the AUC in series [3] is 10.8 µM·h. Further, the “TR_FRET EKI BCLxL/WT selectivty ratio” value in [4] amounted to 83.6. Also, the “Ratio (G101V/WT)” value in series [6] is reported as 9.34. The figures for the IC50 in series [6] and in [9] were 0.0898 µM and 0.0096 µM, respectively. Moreover, in series [8], the “TR_FRET EKI G101V/WT selectivty ratio” value came to 6.0.

Regarding `Cc1c(N(C(=O)c2cc(-c3cc4c(cc3C(=O)N3Cc5ccccc5C[C@H]3C)CN(S(=O)(=O)Cc3ccccc3)CC4)n(C)c2C)c2ccc(O)cc2)cc(C#N)n1C` [Example 14, 5-[2-benzylsulfonyl-7-[(3R)-3-methyl-3,4-dihydro-1H-isoquinoline-2-carbonyl]-3,4-dihydro-1H-isoquinolin-6-yl]-N-(5-cyano-1,2-dimethyl-pyrrol-3-yl)-N-(4-hydroxyphenyl)-1,2-dimethyl-pyrrole-3-carboxamide], the “Platelet loss (%) 6 h” value in [2] is 16.1%. For the same molecule, in series [2], the “Platelet loss (%) 24 h” value is on record as 12.5%. In addition, the “PK parameters Cinf” value in [3] is 13.5 µM. Moreover, in series [3], the AUC came to 18.5 µM·h. The Ki in [4] is 53 nM; in [5] it was 3.7 nM; in series [7], 4.9 nM; in [11], 0.9 nM. Besides, the “TR_FRET EKI BCLxL/WT selectivty ratio” value in series [4] was determined as 58.9. Besides, in series [6], the “Ratio (G101V/WT)” value stood at 8.86. The IC50 in series [6] was determined as 0.0852 µM; in [9], 0.0096 µM. Moreover, in series [8], the “TR_FRET EKI G101V/WT selectivty ratio” value worked out at 5.4.

For `Cc1c(N(C(=O)c2cc(-c3cc4c(cc3C(=O)N3Cc5ccccc5C[C@H]3CN3CCCCCC3)CN(C(=O)Cc3ccc(OCCN5CCOCC5)cc3F)CC4)n(C)c2C)c2ccc(O)cc2)cc(C#N)n1C` [Example 96, 5-{7-[(3S)-3-[(azepan-1-yl)methyl]-1,2,3,4-tetrahydroisoquinoline-2-carbonyl]-2-(2-{2-fluoro-4-[2-(morpholin-4-yl)ethoxy]phenyl}acetyl)-1,2,3,4-tetrahydroisoquinolin-6-yl}-N-(5-cyano-1,2-dimethyl-1H-pyrrol-3-yl)-N-(4-hydroxyphenyl)-1,2-dimethyl-1H-pyrrole-3-carboxamide], the Ki in series [1] turned out to be 0.2 nM; in series [4], 2.4 nM; in [5], 0.2 nM; in series [7], 0.4 nM; in [10] it was 0.2 nM; in series [11], 0.06 nM. Further, in [4], the “TR_FRET EKI BCLxL/WT selectivty ratio” value came out at 37.5. Further, the “Ratio (G101V/WT)” value in series [6] came to 5.15. For the same molecule, the results for the IC50 in [6] and in [9] were 0.0291 µM and 0.0056 µM, respectively. Further, the “TR_FRET EKI G101V/WT selectivty ratio” value in [8] was 5.6.

Take `Cc1c(N(C(=O)c2cc(-c3cc4c(cc3C(=O)N3Cc5ccccc5C[C@H]3C)CN(C(=O)Cc3ccc(OCCN5CCN(C6CC6)CC5)cc3)CC4)n(C)c2C)c2ccc(O)cc2)cc(C#N)n1C` [Example 31, N-(5-cyano-1,2-dimethyl-1H-pyrrol-3-yl)-5-[2-(2-{4-[2-(4-cyclopropylpiperazin-1-yl)ethoxy]phenyl}acetyl)-7-[(3R)-3-methyl-1,2,3,4-tetrahydroisoquinoline-2-carbonyl]-1,2,3,4-tetrahydroisoquinolin-6-yl]-N-(4-hydroxyphenyl)-1,2-dimethyl-1H-pyrrole-3-carboxamide]: the Ki in [1] amounted to 0.52 nM; in [4], 1.3 nM; in [5], 0.4 nM; in series [7] it was 0.3 nM; in series [10], 0.26 nM; in [11] it was 0.11 nM. In addition, the “TR_FRET EKI BCLxL/WT selectivty ratio” value in series [4] stood at 11.8. Moreover, in [6], the “Ratio (G101V/WT)” value came out at 4.05. Moreover, the IC50 in [6] came out at 0.0312 µM; in [9], 0.0077 µM. For the same molecule, in series [8], the “TR_FRET EKI G101V/WT selectivty ratio” value was 2.6.

`Cc1c(N(C(=O)c2cc(-c3cc4c(cc3C(=O)N3Cc5ccccc5C[C@H]3C)CN(C(=O)Cc3ccc(OCCN5CCOCC5)cc3Cl)CC4)n(C)c2C)c2ccc(O)cc2)cc(C#N)n1C` [Example 46, 5-[2-(2-{2-chloro-4-[2-(morpholin-4-yl)ethoxy]phenyl}acetyl)-7-[(3R)-3-methyl-1,2,3,4-tetrahydroisoquinoline-2-carbonyl]-1,2,3,4-tetrahydroisoquinolin-6-yl]-N-(5-cyano-1,2-dimethyl-1H-pyrrol-3-yl)-N-(4-hydroxyphenyl)-1,2-dimethyl-1H-pyrrole-3-carboxamide]: the Ki in series [1] turned out to be 0.35 nM; in series [4] it was 1.5 nM; in series [5] it was 0.23 nM; in series [7], 0.3 nM; in [10], 0.2 nM; in series [11], 0.14 nM. In addition, the “TR_FRET EKI BCLxL/WT selectivty ratio” value in series [4] was 10.7. Further, in series [6], the “Ratio (G101V/WT)” value was determined as 5. Also, the IC50 in [6] is 0.0256 µM; in series [9], 0.0051 µM. For the same molecule, in [8], the “TR_FRET EKI G101V/WT selectivty ratio” value is listed as 2.4.
